Assays:
Type in all cases: cell-based
NCI-H23 = experiment: NCI-60 one-dose screen, NCI-H23; details: Homo sapiens; NCI-H23, non-small cell lung cancer; single dose 10 μM; read-out: Growth inhibition %
Description: (§1) Anti-proliferative effects of the counterparts 4a–g and 5a–g were screened against 60 human cancer cell lines, following the Developmental Therapeutics Program protocol, National Cancer Institute[35].
(§2) The anti-tumour activity of the fourteen synthesised congeners was investigated at the NCI against a panel of 60 cancer cell lines (NCI-60 Cell One-Dose Screen). The tested dibenzo[b,f]azepine derivatives were screened at a single dose level (10 μM), Table 1.

SW-620 = experiment: NCI-60 one-dose screen, SW-620; details: Homo sapiens; SW-620, colon cancer; single dose 10 μM; read-out: Growth inhibition %
Description: as §1, §2

HOP-92 = experiment: NCI-60 one-dose screen, HOP-92; details: Homo sapiens; HOP-92, non-small cell lung cancer; single dose 10 μM; read-out: Growth inhibition %
Description: as §1, §2

OVCAR-5 = experiment: NCI-60 one-dose screen, OVCAR-5; details: Homo sapiens; OVCAR-5, ovarian cancer; single dose 10 μM; read-out: Growth inhibition %
Description: as §1, §2

HCT-116 = experiment: NCI-60 one-dose screen, HCT-116; details: Homo sapiens; HCT-116, colon cancer; single dose 10 μM; read-out: Growth inhibition %
Description: as §1, §2

SK-MEL-28 = experiment: NCI-60 one-dose screen, SK-MEL-28; details: Homo sapiens; SK-MEL-28, melanoma; single dose 10 μM; read-out: Growth inhibition %
Description: as §1, §2

MDA-MB-231-ATCC = experiment: NCI-60 one-dose screen, MDA-MB-231-ATCC; details: Homo sapiens, breast cancer, single dose 10 μM, read-out: Growth inhibition %
Description: as §1, §2

NCI-H460 = experiment: NCI-60 one-dose screen, NCI-H460; details: Homo sapiens; NCI-H460, non-small cell lung cancer; single dose 10 μM; read-out: Growth inhibition %
Description: as §1, §2

A498 = experiment: NCI-60 one-dose screen, A498; details: Homo sapiens; A498, renal cancer; single dose 10 μM; read-out: Growth inhibition %
Description: as §1, §2

MCF-7 = experiment: NCI-60 one-dose screen, MCF-7; details: Homo sapiens, MCF7; MCF-7, breast cancer; single dose 10 μM; read-out: Growth inhibition %
Description: as §1, §2

PC-3 = experiment: NCI-60 one-dose screen, PC-3; details: Homo sapiens; PC-3, prostate cancer; single dose 10 μM; read-out: Growth inhibition %
Description: as §1, §2

SF-268 = experiment: NCI-60 one-dose screen, SF-268; details: Homo sapiens; SF-268, CNS cancer; single dose 10 μM; read-out: Growth inhibition %
Description: as §1, §2

UO-31 = experiment: NCI-60 one-dose screen, UO-31; details: Homo sapiens; UO-31, renal cancer; single dose 10 μM; read-out: Growth inhibition %
Description: as §1, §2

SK-MEL-2 = experiment: NCI-60 one-dose screen, SK-MEL-2; details: Homo sapiens; SK-MEL-2, melanoma; single dose 10 μM; read-out: Growth inhibition %
Description: as §1, §2

786-0 = experiment: NCI-60 one-dose screen, 786-0; details: Homo sapiens; 786-0, renal cancer; single dose 10 μM; read-out: Growth inhibition %
Description: as §1, §2

HOP-62 = experiment: NCI-60 one-dose screen, HOP-62; details: Homo sapiens; HOP-62, non-small cell lung cancer; single dose 10 μM; read-out: Growth inhibition %
Description: as §1, §2

HT29 = experiment: NCI-60 one-dose screen, HT29; details: Homo sapiens, HT-29; HT29, colon cancer; single dose 10 μM; read-out: Growth inhibition %
Description: as §1, §2

NCI-H322M = experiment: NCI-60 one-dose screen, NCI-H322M; details: Homo sapiens, non-small cell lung cancer, single dose 10 μM, read-out: Growth inhibition %
Description: as §1, §2

M14 = experiment: NCI-60 one-dose screen, M14; details: Homo sapiens; M14, melanoma; single dose 10 μM; read-out: Growth inhibition %
Description: as §1, §2

MOLT-4 = experiment: NCI-60 one-dose screen, MOLT-4; details: Homo sapiens; MOLT-4, leukaemia; single dose 10 μM; read-out: Growth inhibition %
Description: as §1, §2

COLO 205 = experiment: NCI-60 one-dose screen, COLO 205; details: Homo sapiens; COLO 205, colon cancer; single dose 10 μM; read-out: Growth inhibition %
Description: as §1, §2

RXF 393 = experiment: NCI-60 one-dose screen, RXF 393; details: Homo sapiens; RXF 393, renal cancer; single dose 10 μM; read-out: Growth inhibition %
Description: as §1, §2

SF-539 = experiment: NCI-60 one-dose screen, SF-539; details: Homo sapiens; SF-539, CNS cancer; single dose 10 μM; read-out: Growth inhibition %
Description: as §1, §2

HL-60(TB) = experiment: NCI-60 one-dose screen, HL-60(TB); details: Homo sapiens, leukaemia, single dose 10 μM, read-out: Growth inhibition %
Description: as §1, §2

EKVX = experiment: NCI-60 one-dose screen, EKVX; details: Homo sapiens, non-small cell lung cancer, single dose 10 μM, read-out: Growth inhibition %
Description: as §1, §2

HS 578 T = experiment: NCI-60 one-dose screen, HS 578 T; details: Homo sapiens, breast cancer, single dose 10 μM, read-out: Growth inhibition %
Description: as §1, §2

RPMI-8226 = experiment: NCI-60 one-dose screen, RPMI-8226; details: Homo sapiens; RPMI-8226, leukaemia; single dose 10 μM; read-out: Growth inhibition %
Description: as §1, §2

MALME-3M = experiment: NCI-60 one-dose screen, MALME-3M; details: Homo sapiens, melanoma, single dose 10 μM, read-out: Growth inhibition %
Description: as §1, §2

ACHN = experiment: NCI-60 one-dose screen, ACHN; details: Homo sapiens, renal cancer, single dose 10 μM, read-out: Growth inhibition %
Description: as §1, §2

OVCAR-3 = experiment: NCI-60 one-dose screen, OVCAR-3; details: Homo sapiens; OVCAR-3, ovarian cancer; single dose 10 μM; read-out: Growth inhibition %
Description: as §1, §2

DU-145 = experiment: NCI-60 one-dose screen, DU-145; details: Homo sapiens; DU-145, prostate cancer; single dose 10 μM; read-out: Growth inhibition %
Description: as §1, §2

HCT-15 = experiment: NCI-60 one-dose screen, HCT-15; details: Homo sapiens; HCT-15, colon cancer; single dose 10 μM; read-out: Growth inhibition %
Description: as §1, §2

OVCAR-8 = experiment: NCI-60 one-dose screen, OVCAR-8; details: Homo sapiens; OVCAR-8, ovarian cancer; single dose 10 μM; read-out: Growth inhibition %
Description: as §1, §2

SK-OV-3 = experiment: NCI-60 one-dose screen, SK-OV-3; details: Homo sapiens; SK-OV-3, ovarian cancer; single dose 10 μM; read-out: Growth inhibition %
Description: as §1, §2

Structure (SMILES) | inhibition at 10 µM (NCI-H23) [%] | inhibition at 10 µM (SW-620) [%] | inhibition at 10 µM (HOP-92) [%] | inhibition at 10 µM (OVCAR-5) [%] | inhibition at 10 µM (HCT-116) [%] | inhibition at 10 µM (SK-MEL-28) [%] | inhibition at 10 µM (MDA-MB-231-ATCC) [%] | inhibition at 10 µM (NCI-H460) [%] | inhibition at 10 µM (A498) [%] | inhibition at 10 µM (MCF-7) [%] | inhibition at 10 µM (PC-3) [%] | inhibition at 10 µM (SF-268) [%] | inhibition at 10 µM (UO-31) [%] | inhibition at 10 µM (SK-MEL-2) [%] | inhibition at 10 µM (786-0) [%] | inhibition at 10 µM (HOP-62) [%] | inhibition at 10 µM (HT29) [%] | inhibition at 10 µM (NCI-H322M) [%] | inhibition at 10 µM (M14) [%] | inhibition at 10 µM (MOLT-4) [%] | also measured
O=C(NNC(=O)N1c2ccccc2C=Cc2ccccc21)c1ccccc1 [Compound 4a, N′-Benzoyl-5H-dibenzo[b,f]azepine-5-carbohydrazide] | < 10 | < 10 | < 10 | < 10 | < 10 | < 10 | < 10 | < 10 | < 10 | < 10 | < 10 | < 10 | < 10 | < 10 | < 10 | < 10 | < 10 | < 10 | < 10 | < 10 | inhibition at 10 µM (COLO 205): < 10%; inhibition at 10 µM (RXF 393): < 10%; inhibition at 10 µM (SF-539): < 10%; inhibition at 10 µM (HL-60(TB)): < 10%; inhibition at 10 µM (EKVX): < 10%; inhibition at 10 µM (HS 578 T): < 10%; inhibition at 10 µM (RPMI-8226): < 10%; inhibition at 10 µM (MALME-3M): < 10%; inhibition at 10 µM (ACHN): < 10%; inhibition at 10 µM (OVCAR-3): < 10%; inhibition at 10 µM (DU-145): < 10%; inhibition at 10 µM (HCT-15): < 10%; inhibition at 10 µM (OVCAR-8): < 10%; inhibition at 10 µM (SK-OV-3): < 10%
O=C(NNC(=O)N1c2ccccc2C=Cc2ccccc21)c1ccc(Br)cc1 [Compound 4b, N′-(4-Bromobenzoyl)-5H-dibenzo[b,f]azepine-5-carbohydrazide] | < 10 | 11.8 | < 10 | < 10 | < 10 | < 10 | < 10 | < 10 | < 10 | < 10 | < 10 | 15.1 | < 10 | < 10 | 21.1 | < 10 | < 10 | < 10 | < 10 | < 10 | inhibition at 10 µM (COLO 205): < 10%; inhibition at 10 µM (RXF 393): < 10%; inhibition at 10 µM (SF-539): < 10%; inhibition at 10 µM (HL-60(TB)): < 10%; inhibition at 10 µM (EKVX): < 10%; inhibition at 10 µM (HS 578 T): < 10%; inhibition at 10 µM (RPMI-8226): < 10%; inhibition at 10 µM (MALME-3M): < 10%; inhibition at 10 µM (ACHN): 14%; inhibition at 10 µM (OVCAR-3): < 10%; inhibition at 10 µM (DU-145): 19.7%; inhibition at 10 µM (HCT-15): < 10%; inhibition at 10 µM (OVCAR-8): < 10%; inhibition at 10 µM (SK-OV-3): < 10%
O=C(NNC(=O)N1c2ccccc2C=Cc2ccccc21)c1ccc(Cl)cc1 [Compound 4c, N′-(4-Chlorobenzoyl)-5H-dibenzo[b,f]azepine-5-carbohydrazide] | < 10 | < 10 | < 10 | < 10 | < 10 | < 10 | < 10 | < 10 | < 10 | < 10 | < 10 | < 10 | < 10 | < 10 | < 10 | < 10 | < 10 | < 10 | < 10 | < 10 | inhibition at 10 µM (COLO 205): < 10%; inhibition at 10 µM (RXF 393): < 10%; inhibition at 10 µM (SF-539): < 10%; inhibition at 10 µM (HL-60(TB)): < 10%; inhibition at 10 µM (EKVX): < 10%; inhibition at 10 µM (HS 578 T): < 10%; inhibition at 10 µM (RPMI-8226): < 10%; inhibition at 10 µM (MALME-3M): < 10%; inhibition at 10 µM (ACHN): 13.3%; inhibition at 10 µM (OVCAR-3): < 10%; inhibition at 10 µM (DU-145): < 10%; inhibition at 10 µM (HCT-15): < 10%; inhibition at 10 µM (OVCAR-8): < 10%; inhibition at 10 µM (SK-OV-3): < 10%
Cc1ccc(C(=O)NNC(=O)N2c3ccccc3C=Cc3ccccc32)cc1 [Compound 4d, N′-(4-Methylbenzoyl)-5H-dibenzo[b,f]azepine-5-carbohydrazide] | < 10 | < 10 | < 10 | < 10 | < 10 | < 10 | < 10 | < 10 | < 10 | < 10 | < 10 | < 10 | < 10 | < 10 | < 10 | < 10 | < 10 | < 10 | < 10 | < 10 | inhibition at 10 µM (COLO 205): < 10%; inhibition at 10 µM (RXF 393): < 10%; inhibition at 10 µM (SF-539): < 10%; inhibition at 10 µM (HL-60(TB)): < 10%; inhibition at 10 µM (EKVX): < 10%; inhibition at 10 µM (HS 578 T): < 10%; inhibition at 10 µM (RPMI-8226): < 10%; inhibition at 10 µM (MALME-3M): < 10%; inhibition at 10 µM (ACHN): < 10%; inhibition at 10 µM (OVCAR-3): < 10%; inhibition at 10 µM (DU-145): < 10%; inhibition at 10 µM (HCT-15): < 10%; inhibition at 10 µM (OVCAR-8): < 10%; inhibition at 10 µM (SK-OV-3): < 10%
O=C(NNC(=O)N1c2ccccc2C=Cc2ccccc21)c1ccc([N+](=O)[O-])cc1 [Compound 4e, N′-(4-Nitrobenzoyl)-5H-dibenzo[b,f]azepine-5-carbohydrazide] | < 10 | < 10 | < 10 | < 10 | < 10 | < 10 | < 10 | < 10 | < 10 | < 10 | < 10 | < 10 | < 10 | < 10 | < 10 | < 10 | < 10 | < 10 | < 10 | < 10 | inhibition at 10 µM (COLO 205): < 10%; inhibition at 10 µM (RXF 393): < 10%; inhibition at 10 µM (SF-539): < 10%; inhibition at 10 µM (HL-60(TB)): < 10%; inhibition at 10 µM (EKVX): < 10%; inhibition at 10 µM (HS 578 T): < 10%; inhibition at 10 µM (RPMI-8226): < 10%; inhibition at 10 µM (MALME-3M): < 10%; inhibition at 10 µM (ACHN): < 10%; inhibition at 10 µM (OVCAR-3): < 10%; inhibition at 10 µM (DU-145): < 10%; inhibition at 10 µM (HCT-15): < 10%; inhibition at 10 µM (OVCAR-8): < 10%; inhibition at 10 µM (SK-OV-3): < 10%
